From patent US20230085307A1, “PYRIDAZINONE COMPOUND AND HERBICIDE” (NISSAN CHEMICAL CORPORATION, priority 2019, published 2023)

Key:
lambsquarters = test: Test Example 4: herbicidal effect by soil treatment (Table 19, symbol O); format: in vivo, lambsquarters (Chenopodium album); conditions: amount of applied herbicide 320 g/ha
Outline: (§1)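 Scoring uses the grading scale of an earlier test, three weeks post-application. Treatment consists of spraying a diluted emulsion formulation across the surface of sterilized diluvial soil in which seeds are buried near 1.5 cm deep; boxes are kept in a greenhouse between 25° C. and 30° C.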

green foxtail [1] = test: Test Example 5: herbicidal effect by foliage application, plastic box (Table 20, symbol G); format: in vivo, green foxtail (Setaria viridis); conditions: foliage application, 320 g/ha, evaluated three weeks after application
Outline: (§2)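 Post-emergence foliar test in sterilized diluvial soil. Compound applied as water-diluted emulsion at a predetermined rate to 14-day-old plants; evaluation at three weeks.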

Japanese bulrush = test: Test Example 2: herbicidal activity, application during weed generation under submerged conditions (Table 17, symbol B); format: in vivo, Japanese bulrush (Schoenoplectus juncoides); conditions: AAH 320 g/ha; application during weed generation, submerged conditions
Outline: (§3)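 Effect on each weed is rated three weeks post-treatment, using the same scoring criteria as the preceding test. Plants grow from mixed-sown seed in flooded alluvial soil (4 cm water) at 25° C. to 30° C., and are treated at one to two leaves with diluted emulsion dropped onto the water.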

chickweed [2] = test: Test Example 4: herbicidal effect by soil treatment (Table 19, symbol P); format: in vivo, common chickweed (Stellaria media); conditions: amount of applied herbicide 320 g/ha
Outline: as §1

velvetleaf [3] = test: Test Example 5: herbicidal effect by foliage application, plastic box (Table 20, symbol M); format: in vivo, velvetleaf (Abutilon theophrasti); conditions: foliage application, 320 g/ha, evaluated three weeks after application
Outline: as §2

southern crabgrass = test: Test Example 4: herbicidal effect by soil treatment (Table 19, symbol F); format: in vivo, southern crabgrass (Digitaria ciliaris); conditions: amount of applied herbicide 320 g/ha
Outline: as §1

chickweed [4] = test: Test Example 5: herbicidal effect by foliage application, plastic box (Table 20, symbol P); format: in vivo, common chickweed (Stellaria media); conditions: foliage application, 320 g/ha, evaluated three weeks after application
Outline: as §2

wild oat [5] = test: Test Example 4: herbicidal effect by soil treatment (Table 19, symbol I); format: in vivo, wild oat (Avena fatua); conditions: amount of applied herbicide 320 g/ha
Outline: as §1

Italian ryegrass [6] = test: Test Example 4: herbicidal effect by soil treatment (Table 19, symbol K); format: in vivo, Italian ryegrass (Lolium multiflorum); conditions: amount of applied herbicide 320 g/ha
Outline: as §1

blackgrass = test: Test Example 5: herbicidal effect by foliage application, plastic box (Table 20, symbol J); format: in vivo, blackgrass (Alopecurus myosuroides); conditions: foliage application, 320 g/ha, evaluated three weeks after application
Outline: as §2

velvetleaf [7] = test: Test Example 4: herbicidal effect by soil treatment (Table 19, symbol M); format: in vivo, velvetleaf (Abutilon theophrasti); conditions: amount of applied herbicide 320 g/ha
Outline: as §1

redroot pigweed [8] = test: Test Example 4: herbicidal effect by soil treatment (Table 19, symbol N); format: in vivo, redroot pigweed (Amaranthus retroflexus); conditions: amount of applied herbicide 320 g/ha
Outline: as §1

wild oat [9] = test: Test Example 5: herbicidal effect by foliage application, plastic box (Table 20, symbol I); format: in vivo, wild oat (Avena fatua); conditions: foliage application, 320 g/ha, evaluated three weeks after application
Outline: as §2

persian speedwell = test: Test Example 5: herbicidal effect by foliage application, plastic box (Table 20, symbol R); format: in vivo, Persian speedwell (Veronica persica); conditions: foliage application, 320 g/ha, evaluated three weeks after application
Outline: as §2

late watergrass = test: Test Example 2: herbicidal activity, application during weed generation under submerged conditions (Table 17, symbol A); format: in vivo, late watergrass (Echinochloa oryzicola); conditions: AAH 320 g/ha; application during weed generation, submerged conditions
Outline: as §3

Italian ryegrass [10] = test: Test Example 5: herbicidal effect by foliage application, plastic box (Table 20, symbol K); format: in vivo, Italian ryegrass (Lolium multiflorum); conditions: foliage application, 320 g/ha, evaluated three weeks after application
Outline: as §2

rice flat sedge = test: Test Example 3: herbicidal effect by foliage application, Wagner pot (Table 18, symbol E); format: in vivo, rice flat sedge (Cyperus iria); conditions: amount of applied herbicide 320 g/ha
Outline: (§4)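 Plants were sown in alluvial soil held under 0.1–0.5 cm standing water and grown 14 days in a greenhouse at 25–30 °C. An emulsifiable formulation, water-diluted to the set dose, was then sprayed onto the foliage, and effects were scored three weeks later using previously defined criteria.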

windgrass = test: Test Example 5: herbicidal effect by foliage application, plastic box (Table 20, symbol L); format: in vivo, windgrass (Apera spica-venti); conditions: foliage application, 320 g/ha, evaluated three weeks after application
Outline: as §2

barnyard grass [11] = test: Test Example 3: herbicidal effect by foliage application, Wagner pot (Table 18, symbol H); format: in vivo, barnyard grass (Echinochloa crus-galli); conditions: amount of applied herbicide 320 g/ha
Outline: as §4

redroot pigweed [12] = test: Test Example 5: herbicidal effect by foliage application, plastic box (Table 20, symbol N); format: in vivo, redroot pigweed (Amaranthus retroflexus); conditions: foliage application, 320 g/ha, evaluated three weeks after application
Outline: as §2

barnyard grass [13] = test: Test Example 4: herbicidal effect by soil treatment (Table 19, symbol H); format: in vivo, barnyard grass (Echinochloa crus-galli); conditions: amount of applied herbicide 320 g/ha
Outline: as §1

green foxtail [14] = test: Test Example 4: herbicidal effect by soil treatment (Table 19, symbol G); format: in vivo, green foxtail (Setaria viridis); conditions: amount of applied herbicide 320 g/ha
Outline: as §1

| SMILES | herbicidal effect on O: lambsquarters (lambsquarters) | herbicidal effect on G: green foxtail (criteria 0-5) (green foxtail [1]) | herbicidal effect rating, B: Japanese bulrush (Japanese bulrush) | herbicidal effect on P: chickweed (chickweed [2]) | herbicidal effect on M: velvetleaf (criteria 0-5) (velvetleaf [3]) | herbicidal effect on F: southern crabgrass (southern crabgrass) | herbicidal effect on P: chickweed (criteria 0-5) (chickweed [4]) | herbicidal effect on I: wild oat (wild oat [5]) | herbicidal effect on K: Italian ryegrass (Italian ryegrass [6]) | herbicidal effect on J: blackgrass (criteria 0-5) (blackgrass) | herbicidal effect on M: velvetleaf (velvetleaf [7]) | herbicidal effect on N: redroot pigweed (redroot pigweed [8]) | herbicidal effect on I: wild oat (criteria 0-5) (wild oat [9]) | herbicidal effect on R: persian speedwell (criteria 0-5) (persian speedwell) | herbicidal effect rating, A: late watergrass (late watergrass) | herbicidal effect on K: Italian ryegrass (criteria 0-5) (Italian ryegrass [10]) | herbicidal effect on E: rice flat sedge (rice flat sedge) | herbicidal effect on L: windgrass (criteria 0-5) (windgrass) | herbicidal effect on H: barnyard grass (barnyard grass [11]) | herbicidal effect on N: redroot pigweed (criteria 0-5) (redroot pigweed [12]) | other results |
| --- | --- | --- | --- | --- | --- | --- | --- | --- | --- | --- | --- | --- | --- | --- | --- | --- | --- | --- | --- | --- | --- |
| Cc1nn(C)c(=O)c(-c2c(-c3ccc(C(F)F)cc3)sc3ccc(F)cc23)c1O [2-227] | 5 (Herbicidal rate of 90% or more (almost completely withered)) | 4 (Herbicidal rate of 70% or more and less than 90%) | 2 (Herbicidal rate of 20% or more and less than 40%) | 5 (Herbicidal rate of 90% or more (almost completely withered)) | 5 (Herbicidal rate of 90% or more (almost completely withered)) | 5 (Herbicidal rate of 90% or more (almost completely withered)) | 5 (Herbicidal rate of 90% or more (almost completely withered)) | 0 (Herbicidal rate of 5% or less (almost no effect)) | 4 (Herbicidal rate of 70% or more and less than 90%) | 3 (Herbicidal rate of 40% or more and less than 70%) | 5 (Herbicidal rate of 90% or more (almost completely withered)) | 5 (Herbicidal rate of 90% or more (almost completely withered)) | 0 (Herbicidal rate of 5% or less (almost no effect)) | 5 (Herbicidal rate of 90% or more (almost completely withered)) | 0 (Herbicidal rate of 5% or less (almost no effect)) | 4 (Herbicidal rate of 70% or more and less than 90%) | 5 (Herbicidal rate of 90% or more (almost completely withered)) | 0 (Herbicidal rate of 5% or less (almost no effect)) | 5 (Herbicidal rate of 90% or more (almost completely withered)) | 5 (Herbicidal rate of 90% or more (almost completely withered)) | herbicidal effect on H: barnyard grass (barnyard grass [13]): 5 (Herbicidal rate of 90% or more (almost completely withered)); herbicidal effect on G: green foxtail (green foxtail [14]): 4 (Herbicidal rate of 70% or more and less than 90%) |
| CCCSc1ccc(-c2sc3ccc(F)cc3c2-c2c(OC(=O)CCC)c(C)nn(C)c2=O)cc1 [2-249] | 3 (Herbicidal rate of 40% or more and less than 70%) | 5 (Herbicidal rate of 90% or more (almost completely withered)) | 0 (Herbicidal rate of 5% or less (almost no effect)) | 0 (Herbicidal rate of 5% or less (almost no effect)) | 5 (Herbicidal rate of 90% or more (almost completely withered)) | 3 (Herbicidal rate of 40% or more and less than 70%) | 5 (Herbicidal rate of 90% or more (almost completely withered)) | 0 (Herbicidal rate of 5% or less (almost no effect)) | 0 (Herbicidal rate of 5% or less (almost no effect)) | 4 (Herbicidal rate of 70% or more and less than 90%) | 1 (Herbicidal rate of 5% or more and less than 20%) | 5 (Herbicidal rate of 90% or more (almost completely withered)) | 4 (Herbicidal rate of 70% or more and less than 90%) | 5 (Herbicidal rate of 90% or more (almost completely withered)) | 4 (Herbicidal rate of 70% or more and less than 90%) | 3 (Herbicidal rate of 40% or more and less than 70%) | 5 (Herbicidal rate of 90% or more (almost completely withered)) | 4 (Herbicidal rate of 70% or more and less than 90%) | 5 (Herbicidal rate of 90% or more (almost completely withered)) | 5 (Herbicidal rate of 90% or more (almost completely withered)) | herbicidal effect on H: barnyard grass (barnyard grass [13]): 4 (Herbicidal rate of 70% or more and less than 90%); herbicidal effect on G: green foxtail (green foxtail [14]): 4 (Herbicidal rate of 70% or more and less than 90%) |
| Cc1nn(C)c(=O)c(-c2c(-c3ccc(SC(C)C)cc3)sc3ccc(F)cc23)c1O [2-252] | 4 (Herbicidal rate of 70% or more and less than 90%) | 4 (Herbicidal rate of 70% or more and less than 90%) | 3 (Herbicidal rate of 40% or more and less than 70%) | 5 (Herbicidal rate of 90% or more (almost completely withered)) | 5 (Herbicidal rate of 90% or more (almost completely withered)) | 2 (Herbicidal rate of 20% or more and less than 40%) | 5 (Herbicidal rate of 90% or more (almost completely withered)) | 0 (Herbicidal rate of 5% or less (almost no effect)) | 3 (Herbicidal rate of 40% or more and less than 70%) | 5 (Herbicidal rate of 90% or more (almost completely withered)) | 2 (Herbicidal rate of 20% or more and less than 40%) | 5 (Herbicidal rate of 90% or more (almost completely withered)) | 4 (Herbicidal rate of 70% or more and less than 90%) | 5 (Herbicidal rate of 90% or more (almost completely withered)) | 4 (Herbicidal rate of 70% or more and less than 90%) | 5 (Herbicidal rate of 90% or more (almost completely withered)) | 5 (Herbicidal rate of 90% or more (almost completely withered)) | 5 (Herbicidal rate of 90% or more (almost completely withered)) | 5 (Herbicidal rate of 90% or more (almost completely withered)) | 5 (Herbicidal rate of 90% or more (almost completely withered)) | herbicidal effect on H: barnyard grass (barnyard grass [13]): 3 (Herbicidal rate of 40% or more and less than 70%); herbicidal effect on G: green foxtail (green foxtail [14]): 1 (Herbicidal rate of 5% or more and less than 20%) |
